Common to all, as to type: in vivo
For experiment [1], the system named is Alopercurus myosuroides (ALOMY). Description: Greenhouse herbicidal test, post-emergence. Conditions: postemergence, application rate 5 kg/ha, scale 0 to 100. An excerpt: (§1) The culture containers used were plastic flowerpots containing loamy sand with approximately 3.0% of humus as the substrate. The seeds of the test plants were sown separately for each species.
(§2) For the post-emergence treatment, the test plants were first grown to a height of 2 to 15 cm, depending on the plant habit, and only then treated with the active ingredients which had been suspended or emulsified in water. For this purpose, the test plants were either sown directly and grown in the same containers, or they were first grown separately as seedlings and transplanted into the test containers a few days prior to treatment.
(§3) Depending on the species, the test plants were kept at 10-25° C. or 20-35° C., respectively.
(§4) The test period extended over 2 to 4 weeks. During this time, the test plants were tended, and their response to the individual treatments was evaluated.
(§5) Evaluation was carried out using a scale from 0 to 100. 100 means no emergence of the test plants, or complete destruction of at least the aerial moieties, and 0 means no damage, or normal course of growth. A moderate herbicidal activity is given at values of 40 to 59, good herbicidal activity is given at values of more than 59 to 80 and a very good herbicidal activity is given at values of more than 80 to 100.

Experiment [2] deals with Apera spica-venti (APESV). The experiment in a line: Greenhouse herbicidal test, pre-emergence. To be noted: application rate 5 kg/ha, scale 0 to 100.
Description: as §1
For the pre-emergence treatment, the active ingredients, which had been suspended or emulsified in water, were applied directly after sowing by means of finely distributing nozzles. The containers were irrigated gently to promote germination and growth and subsequently covered with transparent plastic hoods until the test plants had rooted. This cover caused uniform germination of the test plants, unless this had been impaired by the active ingredients.
as §3, §4, §5

The subject of experiment [3] is Setaria viridis (SETVI). Description: Greenhouse herbicidal test, post-emergence. To be noted: postemergence, application rate 5 kg/ha, scale 0 to 100.
Description: as §1, §2, §3, §4, §5

The test system of experiment [4] is Amaranthus retroflexus (AMARE). The experiment in a line: Greenhouse herbicidal test, post-emergence. To be noted: postemergence, application rate 5 kg/ha, scale 0 to 100.
Description: as §1, §2, §3, §4, §5

Experiment [5] concerns Echinocloa crus-galli (ECHCG). Description: Greenhouse herbicidal test, post-emergence. Conditions: postemergence, application rate 5 kg/ha, scale 0 to 100.
Description: as §1, §2, §3, §4, §5

Experimental findings from patent US20250049037A1, “HERBICIDAL ACTIVITY OF ALKYL PHOSPHINATES” (priority 2021, published 2025) are described below.

In the case of `CP(=O)(O)CCC(NC(N)=O)C(=O)O` (centres unmarked) [Compound a], the “herbicidal activity against ALOMY” value in experiment [1] is “moderate (A moderate herbicidal activity is given at values of 40 to 59)”. Turning to `CP(=O)(O)CC[C@@H](NC(N)=O)C(=O)O` [Compound b], the “herbicidal activity against APESV” value in experiment [2] is “good (good herbicidal activity is given at values of more than 59 to 80)”. With `CP(=O)(O)CCC1NC(=O)NC1=O` (centres unmarked) [Compound e], the “herbicidal activity against SETVI” value in experiment [3] is “good (good herbicidal activity is given at values of more than 59 to 80)”. For the molecule `CCCCOP(C)(=O)CCC(NC(N)=O)C(=O)O` (centres unmarked) [Compound f, 4-[butoxy(methyl)phosphoryl]-2-ureido-butanoic acid], the “herbicidal activity against AMARE” value in experiment [4] was “good (good herbicidal activity is given at values of more than 59 to 80)”. Moreover, in experiment [5], the “herbicidal activity against ECHCG” value is listed as “good (good herbicidal activity is given at values of more than 59 to 80)”.
